From patent publication US20240301409A1, “Chemically Modified Small Activating RNA” (RACTIGEN THERAPEUTICS, priority 2021, published 2024) come the findings set out here.

Data set [1] deals with Rag1-40 target sequence in the 3′ UTR of firefly luciferase, COS-1 cells.
Procedure: (§1) A 26 bp fragment comprising the target site of Rag1-40 was cloned in the antisense orientation into the 3′ UTR region of the firefly luciferase gene in a pmirGLO dual luciferase vector. Vector plasmids were co-transfected with the indicated saRNAs into COS-1 cells. Cells were lysed 48 hours after transfection, and the resulting lysates were assessed for luciferase activity. Data represent mean±SD of at least two independent experiments. Dashed line represents comparisons to blank control (top dashed line) and Rag1-40 (bottom dashed line). Values close to the top dashed line indicate no off-target effect.
(§2) A 26 bp fragment comprising the Rag1-40 target sequence was cloned in the antisense orientation into a multiple cloning site (MCS) of the 3′ untranslated region of firefly luciferase of the pmirGLO dual luciferase vector (Promega, Fitchburg, WI), to obtain pOff-Target plasmid. Following E. coli transformation and overnight incubation, plasmids for each construct were prepared by standard method. Each plasmid was transfected into COS-1 monkey kidney epithelial cells using Lipofectamine 3000 (Invitrogen, Carlsbad, CA). Subsequently, saRNA was transfected using RNAiMAX. After 24 hours of incubation, COS-1 cells were lysed with 1× lysis buffer, and luciferase activity was measured using dual luciferase reporter gene assay system (Promega, WI, USA) following manufacturer's instructions.
(§3) To assess the off-target effects of unmodified and modified saRNAs, a sequence complementary to the sense oligonucleotide strand of Rag1-40 was cloned into the 3′UTR region of the luciferase gene in a pmirGLO dual luciferase vector. The vector plasmid was co-transfected with the saRNA into COS-1 cells. Cells were lysed 48 hours after transfection and the resulting lysates were assessed for luciferase activity.
In data set [2] the target is T1, RNase A (Bos taurus, UniProt P61823).
T1 sequence (P61823 27-150): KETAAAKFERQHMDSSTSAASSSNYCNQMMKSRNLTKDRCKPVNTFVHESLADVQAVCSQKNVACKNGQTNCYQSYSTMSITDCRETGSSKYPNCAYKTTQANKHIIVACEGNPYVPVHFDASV
Procedure: The duplexes obtained at each time point above were each added to 1 μL of 10× loading buffer, and then frozen in liquid nitrogen. After incubation, all samples were detected for the double-stranded RNA by 4% agarose gel electrophoresis, and the content of each duplex was analyzed by Image J software.
The duplexes obtained at each time point indicated above were each added to 1 μL of 10× loading buffer, and then frozen in liquid nitrogen. After incubation, all samples were detected for the double-stranded RNA by 4% agarose gel electrophoresis, and the content of each duplex was analyzed by Image J software.
saRNA (1.5 μL, 10 μM) was incubated at a final concentration of 0.02 mg/mL in PBS in the presence of RNase A (Amresco, OH, USA) at 37° C. for different durations. At the end of the incubation, the mixture was snap frozen in liquid nitrogen to stop nuclease activity. Samples were analyzed on a 4% agarose gel and examined for duplex degradation.
All chemically modified duplexes (Rag1-40-1 to Rag1-40-32) were incubated with 0.02 μg/L of RNase A for different durations (0 to 96 hours). At the end of the incubation, the size and amount of duplexes were detected by agarose gel electrophoresis.

Data set [3] relates to Rag1-40 target sequence in the 3′ UTR of firefly luciferase, COS-1 cells. As to the kind of experiment: Analysis of off-target effects (pOff-Target dual luciferase reporter in COS-1 cells). The conditions noted are these: lysed 48 hours after transfection, luciferase activity.
Procedure: as §1, §2, §3

Like-named read-outs stand apart in the source and are kept apart here. Oligonucleotides are written 5' to 3', each unit as a sugar letter and its base; * is a phosphorothioate linkage, no mark a phosphodiester; rarer units and linkages stand in square brackets, end groups in braces. Plain capitals give the bases only. r = 2'-OH (RNA); f = 2'-fluoro

“Rag1-40-20: saRNA duplex: sense mCmCAACUCAUUCUCCAAG*U*C (SEQ ID NO 15); antisense fUACUfUGGAGAAfUGAGUfUGG*fC*A (SEQ ID NO 9) (sense CCAACUCAUUCUCCAAGUC; antisense UACUUGGAGAAUGAGUUGGCA; 2'-OMe, 2'-F, phosphorothioate modifications; modified_base (1)..(2) (1,2)=2′-O-methyl(2′-OMe); modified_base (17)..(19) (17,18,19)=phosphorothioate (PS) backbone modification; modified_base (1)..(20) (1,5,12,17,20)=2′-fluoro; modified_base (19)..(21) (19,20,21)=phosphorothioate (PS) backbone modification)”: the “off-target effect compared to unmodified Rag1-40, in words” value in data set [1] is given as “mitigated or similar off-target effects”. The “time to complete degradation” value in data set [2] is not above 24 h.

Take “Rag1-40-21: saRNA duplex: sense mCmCAACUCAUUCUCCAAG*U*C (SEQ ID NO 15); antisense UACUfUGGAGAAfUGAGUfUGG*fC*A (SEQ ID NO 10) (sense CCAACUCAUUCUCCAAGUC; antisense UACUUGGAGAAUGAGUUGGCA; 2'-OMe, 2'-F, phosphorothioates; modified_base (1)..(2) (1,2)=2′-O-methyl(2′-OMe); modified_base (17)..(19) (17,18,19)=phosphorothioate (PS) backbone modification; modified_base (5)..(20) (5,12,17,20)=2′-fluoro; modified_base (19)..(21) (19,20,21)=phosphorothioate (PS) backbone modification)”: the “off-target effect compared to unmodified Rag1-40, in words” value in data set [3] is “mitigated or similar off-target effects”.

For “Rag1-40-22: saRNA duplex: sense mCmCAACUCAUUCUCCAAG*U*C (SEQ ID NO 15); antisense fU*A*fCfUfUGGAGAAfUGAGfUfUGG*fC*A (SEQ ID NO 11) (sense CCAACUCAUUCUCCAAGUC; antisense UACUUGGAGAAUGAGUUGGCA; 2'-OMe, 2'-F, phosphorothioate modifications; modified_base (1)..(2) (1,2)=2′-O-methyl(2′-OMe); modified_base (17)..(19) (17,18,19)=phosphorothioate (PS) backbone modification; modified_base (1)..(21) (1,2,3,19,20,21)=phosphorothioate (PS) backbone modification; modified_base (1)..(20) (1,3,4,5,12,16,17,20)=2′-fluoro)”, in data set [1], the “off-target effect compared to unmodified Rag1-40, in words” value is “completely inhibited”. Moreover, the “degradation of duplex at 96 hours” value in data set [2] was “little or no signs of degradation”.

Take “Rag1-40-23: saRNA duplex: sense mCmCAACUCAUUCUCCAAG*U*C (SEQ ID NO 15); antisense U*A*fCfUfUGGAGAAfUGAGfUfUGG*fC*A (SEQ ID NO 12) (sense CCAACUCAUUCUCCAAGUC; antisense UACUUGGAGAAUGAGUUGGCA; 2'-OMe, 2'-F, phosphorothioate modifications; modified_base (1)..(2) (1,2)=2′-O-methyl(2′-OMe); modified_base (17)..(19) (17,18,19)=phosphorothioate (PS) backbone modification; modified_base (2)..(21) (2,3,19,20,21)=phosphorothioate (PS) backbone modification; modified_base (3)..(20) (3,4,5,12,16,17,20)=2′-fluoro)”: in data set [1], the “off-target effect compared to unmodified Rag1-40, in words” value is “mitigated or similar off-target effects”. For the same substance, the “degradation of duplex at 96 hours” value in data set [2] was “little or no signs of degradation”.

As to “Rag1-40-26: saRNA duplex: sense fCfCAACUCAUUCUCCAAG*U*C (SEQ ID NO 16); antisense fUACUfUGGAGAAfUGAGUfUGGfCA (SEQ ID NO 7) (sense fCfCrArArCrUrCrArUrUrCrUrCrCrArArG*rU*rC; antisense fUrArCrUfUrGrGrArGrArAfUrGrArGrUfUrGrGfCrA)”, in data set [1], the “off-target effect compared to unmodified Rag1-40, in words” value is “increased off-target effects”. Also, the “time to complete degradation” value in data set [2] was not above 24 h.

On to “Rag1-40-28: saRNA duplex: sense fCfCAACUCAUUCUCCAAG*U*C (SEQ ID NO 16); antisense fUACUfUGGAGAAfUGAGUfUGG*fC*A (SEQ ID NO 9) (sense fCfCrArArCrUrCrArUrUrCrUrCrCrArArG*rU*rC; antisense fUrArCrUfUrGrGrArGrArAfUrGrArGrUfUrGrG*fC*rA)”, for which, in data set [1], the “off-target effect compared to unmodified Rag1-40, in words” value is given as “mitigated or similar off-target effects”. For the same substance, the “time to complete degradation” value in data set [2] is not above 24 h.

Regarding “Rag1-40-30: saRNA duplex: sense fCfCAACUCAUUCUCCAAG*U*C (SEQ ID NO 16); antisense fU*A*fCfUfUGGAGAAfUGAGfUfUGG*fC*A (SEQ ID NO 11) (sense fCfCrArArCrUrCrArUrUrCrUrCrCrArArG*rU*rC; antisense fU*rA*fCfUfUrGrGrArGrArAfUrGrArGfUfUrGrG*fC*rA)”, the “off-target effect compared to unmodified Rag1-40, in words” value in data set [1] is “mitigated or similar off-target effects”. In addition, the “degradation of duplex at 96 hours” value in data set [2] is “little or no signs of degradation”.
